Data reported in BindingDB's records for doi:10.1016/s0960-894x(01)00092-0 (Novartis Pharma, 2001).

What was measured:
[1] = Inhibitory concentration against Selectin E in a dynamic flow assay.
[2] = as above; remark: listed apart in the source

| IC50 [1] | IC50 [2] | Compound |
| --- | --- | --- |
| 30 µM | – | C[C@@H]1O[C@@H](O[C@@H]2[C@H](CO)OCC[C@H]2O[C@@H]2O[C@@H](CO)[C@H](O)[C@H](O[C@@H](CC3CCCCC3)C(=O)O)[C@@H]2O)[C@@H](O)[C@@H](O)[C@@H]1O [Sodium; (R)-3-cyclohexyl-2-{3,5-dihydroxy-2-hydroxymethyl-6-[2-hydroxymethyl-3-(3,4,5-trihydroxy-6-methyl-tetrahydro-pyran-2-yloxy)-tetrahydro-pyran-4-yloxy]-tetrahydro-pyran-4-yloxy}-propionate] |
| – | 10 µM | COC(=O)CCCCCCCCO[C@@H]1O[C@@H](CO)[C@@H](O[C@@H]2O[C@@H](CO)[C@H](O)[C@H](O[C@@H](CC3CCCCC3)C(=O)O)[C@@H]2O)[C@H](O[C@@H]2O[C@@H](C)[C@@H](O)[C@H](O)[C@@H]2O)[C@@H]1NC(=O)c1ccc(OC)c(OC)c1 [Sialyl Lewis X Analogue] |
